Reference: patent US20040077697A1, “2-Acylaminothiazole derivative or its salt” (priority 2001, published 2004)

Columns and labels:
human CD34+ cell = test: Megakaryocyte colony formation promoting action; assay type: cell-based; conditions: MegaCult-C, 10 to 14 days, colonies per well, average of three
Procedure: <Megakaryocyte Colony Formation Promoting Action>
A human CD34^+ cell was cultured at 37° C. for 10 to 14 days in the presence of a test compound in a 2-well chamber slide by using MegaCult™-C (produced by StemCell Technologies). According to the manufacturer's instructions, the slide was dehydrated, fixed, and then stained with an anti-glycoprotein IIb/IIIa antibody. A colony containing three or more of the glycoprotein IIb/IIIa positive megakaryocyte cells was defined as one colony, and the number of colonies per well was microscopically measured. The assay was replicated thrice, and an average value was evaluated as the number of megakaryocyte colonies.

Row | Compound | melting point | Number of megakaryocyte colonies (human CD34+ cell; test compound 0.3 μM) | Number of megakaryocyte colonies (human CD34+ cell; test compound 1.0 μM) | Number of megakaryocyte colonies (human CD34+ cell; test compound 3.0 μM)
1 | COc1cc(OC)cc(C(=O)Nc2nc(-c3ccccc3)c(N3CCOCC3)s2)c1.Cl | 169 to 172 °C | – | – | –
2 | Cl.O=C(Nc1nc(-c2ccc(F)cc2)c(N2CCN(C3CCCCC3)CC2)s1)c1ccc(O)c(Cl)c1 | 270 to 272 °C (dec.) | – | – | –
3 | COc1cc(C(=O)Nc2nc(-c3ccc(F)cc3)c(N3CCN(C4CCCCC4)CC3)s2)ccn1 [Example 2, N-[5-(4-cyclohexylpiperazin-1-yl)-4-(4-fluorophenyl)thiazol-2-yl]-2-methoxyi sonicotinamide] | 263 to 266 °C | 5.2 | 19.0 | 34.8
